In patent publication US12637487B2 (priority 2017, dated 2026):
“Also recorded” adds a separate entry of the source.

Key:
[1] = at 1000 μM
[2] = test system: virus; experiment: Antiviral effect of AA011 and VK021 alone; assay type: cell-based
[3] = test system: Human Immunodeficiency Virus (HIV); experiment: MD36792 experiments against human immunodeficiency virus (MT-4 cell protection); assay type: cell-based; conditions: MT-4 cells, LAI virus
Protocol: • 1. […] Cell: MT4 cells. • 3. Virus: Human Immunodeficiency Virus (HIV). • 4. Experimental reagents: RPMI-1640 medium, CellTiter-Glo detection kit (Promega) and other experimental reagents.
Experimental principle: MT-4 cell protection experiments were used to detect compounds against viruses.
Experimental steps: A 3-fold diluted drug was added to a 96-well plate, which incubates the LAI virus and MT-4 cells and inoculates it into the well plate. After culture, when the virus infects the control wells, a significant CPE appears. Reagent CellTiter-Glo was added and mixed, then the chemiluminescence signal is to be detected.
The experiment set the cell control (uninfected cell control), virus control, and positive drug control (Zidovudine, AZT).

[4] = test system: Hepatitis C virus (HCV type 2a, JFH1-Luc virus strain); experiment: MD36792 experiment against hepatitis C virus (Rluc reporter, Huh7.5.1 cells); assay type: cell-based
[5] = test system: HCV virus; experiment: In vitro efficacy of MD36792 and combination with AA011 and VK021 on HCV virus; assay type: cell-based
[6] = test system: patients with hepatitis C; experiment: Dicycloplatin alone in hepatitis C patients; assay type: in vivo, human; conditions: 9 patients with hepatitis C, 1-3 months
[7] = test system: Ebola virus; assay type: cell-based
[8] = test system: cancer patients; experiment: Effect of dicycloplatin on pain in cancer patients (Table 5); assay type: in vivo, human; conditions: for pain, 5th day / pain, 17th day / pain, 31st day, then stop taking: 150 mg i.v. drip once every two days; for pain, 60th-90th (without using DCP ): after stopping
Protocol: Among cancer patients, it is suitable especially to patients with advanced liver cancer, kidney cancer, bone metastases, brain metastases and bone cancer. […] Some patients stopped using dicycloplatin after a certain course of dicycloplatin treatment, and no pain occurred again.
Dose of the above cancer patients is taken once every two days, 150 mg/5% glucose aqueous solution is dripped intravenously.

[9] = test system: HBV patients; experiment: Dicycloplatin alone in hepatitis B patients; assay type: in vivo, human; conditions: 12 hepatitis B patients, 1-3 months
[10] = test system: ICR mice; experiment: Acetic acid-induced twisting (writhing) model, analgesic effect; assay type: in vivo; conditions: for Twisting Number Mean: 1 hour before 0.8% acetic acid i.p., 10 mice; for analgesic effect: acetic acid-induced model, mice
Protocol: Experimental method: Animals were adaptively fed for 5 days, and the body weight of the mice was weighed. […] The mice assigned to MD36792 group and the positive control group were given the corresponding drugs. After 1 hour of administration, the mice in each group were intraperitoneally injected with 0.8% acetic acid (0.2 mL/head). The twisting number of the mice were observed and recorded within 15 minutes.

[11] = test system: tumor patients; experiment: Effect of dicycloplatin on tumor-induced tissue edema and inflammation; assay type: in vivo, human
[12] = test system: Hepatitis B virus (HBV); experiment: MD36792 experiment against hepatitis B virus (HBeAg/HBsAg ELISA, HepAD38 cells); assay type: cell-based; conditions: 72 hours, from 333 μM
[13] = test system: Ebola virus infected people; assay type: in vivo, human; conditions: 20 Ebola-infected patients (Africa), dicycloplatin alone i.v., 1-3 weeks
[14] = test system: cells; experiment: Toxicity to the cells in the HCV combination study; assay type: cell-based; conditions: toxic CC50 to the cells; start concentration 200 μg/ml MD36792, 4 X dilution
[15] = test system: HIV-infected individuals; parameters: species or system human; conditions: in vivo
[16] = at 1000 μM and 250 μM concentration
[17] = Lung cancer to bone metastasis 5 cases
[18] = Lung cancer to brain metastasis 2 cases

## N[C@@H](CCC(=O)N[C@@H](CS)C(=O)NCC(=O)O)C(=O)O [AA011, glutathione]
[1]
  cytotoxicity: no obvious cytotoxicity
[2]; [16]
  antiviral effect: certain antiviral effect

## Cc1cn([C@H]2C[C@H](N=[N+]=[N-])[C@@H](CO)O2)c(=O)[nH]c1=O [zidovudine, Zidovudine, reference compound]
[3]
  inhibitory effect on HIV infection: significant inhibitory effect

## Dicycloplatin [MD36792]
[3]
  inhibitory effect on HIV infection: no inhibitory effect
[4]
  inhibitory effect on HCV: no inhibitory effect
[4]; 72 hours, read-out: EC50 (50% inhibition) of HCV
  EC50: 121 µM
[5]
  SI (selection index of the antiviral effect): 4.44
[5]; start concentration 200 μg/ml MD36792, 4 X dilution
  EC50: 15.62 µg/mL
[6]; dicycloplatin alone 150 mg once every two days
  virus index: None of the patients showed a downward trend
[6]; dicycloplatin alone
  liver function: did not improve
[7]
  inhibitory effect on Ebola virus infection: no inhibitory effect
[8]; Bone cancer 3 cases
  pain, 5th day: Pain gone
  pain, 17th day: No pain
  pain, 31st day, then stop taking: No pain
  pain, 60th-90th (without using DCP ): No pain
[8]; Kidney cancer 1 case
  pain, 5th day: Pain relieved
  pain, 17th day: Pain gone
  pain, 31st day, then stop taking: No pain
  pain, 60th-90th (without using DCP ): No pain
[8]; Liver cancer 5 cases
  pain, 5th day: Pain gone
  pain, 17th day: No pain
  pain, 31st day, then stop taking: No pain
  pain, 60th-90th (without using DCP ): No pain
[8]; [17]
  pain, 5th day: Pain gone
  pain, 17th day: No pain
  pain, 31st day, then stop taking: No pain
  pain, 60th-90th (without using DCP ): No pain
[8]; [18]
  pain, 5th day: Pain gone
  pain, 17th day: No pain
  pain, 31st day, then stop taking: No pain
  pain, 60th-90th (without using DCP ): No pain
[8]; cancer patients, dicycloplatin injection or oral as the only treatment
  treatment of pain caused by cancer: significant effect; also recorded: significant efficacy
[9]; dicycloplatin alone 150 mg once every two days (i.v. drip or oral)
  virus index: None of the patients showed a downward trend
[9]; dicycloplatin alone
  liver function: did not improve
[10]; 10, 20, 40 mg/kg
  dose relation of analgesic effects: dose-independent
[10]; High dose 40 mg/kg, within 15 minutes
  Twisting Number Mean: 8.7
[10]; Low dose 10 mg/kg, within 15 minutes
  Twisting Number Mean: 15.2
[10]; Middle dose 20 mg/kg, within 15 minutes
  Twisting Number Mean: 14.8
[10]
  analgesic effect: significant analgesic effects
[10]; listed as dicycloplatin
  analgesic effect: significant analgesic effect
[10]; high-dose group (40 mg/kg), P=0.009
  number of writhing compared with the model group: statistically significantly suppressed
[11]; liver cancer patients, infusion or oral administration for a period of time
  hepatic tissue edema: significantly disappeared or reduced
[11]; lung cancer patients with brain metastases, oral or injection, one to two weeks
  tissue edema in the brain caused by cancer metastasis: basically eliminated
[12]
  inhibitory effect on the expression of HBeAg (e antigen) of HBV: no inhibitory effect
  inhibitory effect on the expression of HBsAg (surface antigen) of HBV: no inhibitory effect
[13]
  control or remission: without any control or remission
  virus index: None of the patients showed a downward trend
[14]
  CC50: 69.4 µg/mL
[15]
  liver function: did not improve
[15]; po
  viral index: none showed a downward trend

## COc1cc2c(cc1OC)[C@@H]1Cc3ccc(OC)c(OC)c3CN1CC2 [Rotundine, reference compound]
[10]; 100 mg/kg, counted within 15 minutes
  Twisting Number Mean: 2.8
[10]; 100 mg/kg, P=0.000
  number of writhing compared with the model group: statistically significantly suppressed
[10]
  analgesic effect: significant analgesic effects

## NC(=O)c1ncn([C@@H]2O[C@H](CO)[C@@H](O)[C@H]2O)n1 [Ribavirin, reference compound]
[4]
  inhibitory effect on HCV: significant inhibitory effect

## O=C1O[C@H]([C@@H](O)CO)C(O)=C1O [VK021, vitamin C]
[2]; [16]
  antiviral effect: certain antiviral effect

## C[C@@]1(O)[C@H](O)[C@@H](CO)O[C@H]1n1ccc(N)nc1=O [2'CMC, reference compound]
[2]; positive drug, better as the dose increases
  antiviral effect: good antiviral effect
